In patent US20230203081A1, “LINCOSAMIDE ANTIBIOTICS AND USES THEREOF” (President and Fellows of Harvard College, priority 2020, published 2023):
Values after ≈ are worked out from the molar mass of the structure shown.

Assays:
Type in all cases: cell-based
E. coli armA = test: microbe, parasite or virus in culture; conditions: Escherichia coli, E. coli HAV#056; Clinical, armA
How it was run: (§1)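 Inoculum for broth microdilution was 5×10^5 CFU/mL final, prepared from overnight 35° C blood-agar subcultures (separate handling for streptococcal and anaerobic strains); MICs read by CLSI broth microdilution or agar dilution.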

E. coli ΔTolC = test: microbe, parasite or virus in culture; conditions: Escherichia coli, E. coli HAV#038; ΔTolC
How it was run: as §1

S. aureus BAA 977 iErmA = test: microbe, parasite or virus in culture; conditions: Staphylococcus aureus, BAA-977 / MRSA
How it was run: as §1

S. aureus MP-549 msrA = test: microbe, parasite or virus in culture; conditions: Staphylococcus aureus, MP549MSRA; S. aureus HAV#032, MP-549; MSR(A)
How it was run: as §1

[1] = system: broad panel of different clinical isolates; test: microbe, parasite or virus in culture
How it was run: as §1

E. coli LptD = test: MIC (broth microdilution or agar dilution, CLSI); conditions: Escherichia coli, E. coli HAV#040; LptD; read-out: MIC
How it was run: as §1

S. aureus ATCC 29213 = test: MIC (broth microdilution or agar dilution, CLSI); conditions: Staphylococcus aureus, ATCC29213, S. aureus HAV#001, ATCC 29213, MP-549; read-out: MIC
How it was run: as §1

S. aureus ATCC 700699 = test: MIC (broth microdilution or agar dilution, CLSI); conditions: Staphylococcus aureus, ATCC 700699 / VISA
How it was run: as §1

[2] = system: S. aureus ATCC BAA-1707 (MRSA); test: MIC (broth microdilution or agar dilution, CLSI); conditions: Staphylococcus aureus; S. aureus HAV#016, ATCC BAA-1707; MRSA; read-out: MIC
How it was run: as §1

S. pneumoniae ATCC 49619 = test: MIC (broth microdilution or agar dilution, CLSI); conditions: Streptococcus pneumoniae, ATCC49619, S. pneumoniae HAV#003, ATCC 49619; read-out: MIC
How it was run: as §1

S. pneumoniae ATCC 6303 = test: MIC (broth microdilution or agar dilution, CLSI); conditions: Streptococcus pneumoniae, ATCC6303; S. pneumoniae HAV#351, ATCC 6303; read-out: MIC
How it was run: as §1

[3] = system: S. pyogenes MMX 946; cErmB; test: MIC (broth microdilution or agar dilution, CLSI); conditions: Streptococcus pyogenes; S. pyogenes HAV#035, MMX 946; cErmB, mac-resistant; read-out: MIC
How it was run: as §1

In the case of CO/N=C(\C(=O)N[C@@H]1C(=O)N2C(C(=O)O)=C(CSc3nc(=O)c(=O)[nH]n3C)CS[C@H]12)c1csc(N)n1 [Ceftriaxone], the MIC (E. coli armA) is reported as ≤ 0.06 µg/mL, the MIC (E. coli ΔTolC) is reported as ≤ 0.06 µg/mL and the MIC (S. aureus BAA 977 iErmA) is reported as 2 µg/mL (≈ 3.61 µM). For the same molecule, the MIC (S. aureus MP-549 msrA) was > 128 µg/mL, the MIC ([1]; Acinetobacter baumannii, A. baumannii HAV#651, Clinical) was 4 µg/mL (≈ 7.21 µM) and the MIC ([1]; Acinetobacter baumannii, A. baumannii HAV#652 Clinical) was 16 µg/mL (≈ 28.9 µM). It also gave an MIC ([1]; Acinetobacter baumannii, A. baumannii HAV#653, Clinical) of 2 µg/mL (≈ 3.61 µM), an MIC ([1]; Acinetobacter baumannii, A. baumannii HAV#654, Clinical) of 4 µg/mL (≈ 7.21 µM) and an MIC ([1]; Acinetobacter baumannii, A. baumannii HAV#655, Clinical) of 64 µg/mL (≈ 115 µM). For the same molecule, the MIC ([1]; Acinetobacter baumannii, A. baumannii HAV#656, Clinical) was 64 µg/mL (≈ 115 µM), the MIC ([1]; Acinetobacter baumannii, A. baumannii HAV#657, Clinical) was 64 µg/mL (≈ 115 µM) and the MIC ([1]; Acinetobacter baumannii, A. baumannii HAV#658, Clinical) was 16 µg/mL (≈ 28.9 µM). It also gave an MIC ([1]; Acinetobacter baumannii, A. baumannii HAV#659, Clinical) of 32 µg/mL (≈ 57.7 µM), an MIC ([1]; Acinetobacter baumannii, A. baumannii HAV#660, Clinical) of 32 µg/mL (≈ 57.7 µM) and an MIC ([1]; Acinetobacter baumannii, A. baumannii HAV#661, Clinical) of 2 µg/mL (≈ 3.61 µM). It also gave an MIC ([1]; Acinetobacter baumannii, A. baumannii HAV#662, Clinical) of 32 µg/mL (≈ 57.7 µM), an MIC ([1]; Acinetobacter baumannii, A. baumannii HAV#663, Clinical) of 16 µg/mL (≈ 28.9 µM) and an MIC ([1]; Acinetobacter baumannii, A. baumannii HAV#664, Carbapenem R) of 64 µg/mL (≈ 115 µM). For the same molecule, the MIC ([1]; Enterococcus faecalis, E. faecalis HAV#607, Clinical) was > 256 µg/mL, the MIC ([1]; Enterococcus faecalis, E. faecalis HAV#608, Clinical) was > 256 µg/mL and the MIC ([1]; Enterococcus faecalis, E. faecalis HAV#609, Clinical) was > 256 µg/mL. For the same molecule, the MIC ([1]; Enterococcus faecalis, E. faecalis HAV#610, Clinical) was > 256 µg/mL, the MIC ([1]; Enterococcus faecalis, S. faecalis 5060, Line R & Vanco R) was > 256 µg/mL and the MIC ([1]; Enterococcus faecalis, S. faecalis 5074, Line R) was 256 µg/mL (≈ 462 µM). The MIC ([1]; Enterococcus faecalis, VRE, E. faecalis HAV#606, Clinical) was > 256 µg/mL, the MIC ([1]; Enterococcus faecium, E. faecium HAV#327, Clinical) was 0.5 µg/mL (≈ 0.902 µM) and the MIC ([1]; Enterococcus faecium, E. faecium HAV#328, Clinical) was > 128 µg/mL. The MIC ([1]; Enterococcus faecium, E. faecium HAV#329, Clinical) was > 256 µg/mL, the MIC ([1]; Escherichia coli, E. coli HAV#503, Clinical) was > 128 µg/mL and the MIC ([1]; Escherichia coli, E. coli HAV#511, Clinical) was 16 µg/mL (≈ 28.9 µM). For the same molecule, the MIC ([1]; Escherichia coli, E. coli HAV#512, Clinical) was < 0.06 µg/mL, the MIC ([1]; Escherichia coli, E. coli HAV#513, Clinical) was 0.125 µg/mL (≈ 0.225 µM) and the MIC ([1]; Escherichia coli, E. coli HAV#514, Clinical) was 0.125 µg/mL (≈ 0.225 µM). The MIC ([1]; Escherichia coli, E. coli HAV#516, ESBL-producing) was 64 µg/mL (≈ 115 µM), the MIC ([1]; Klebsiella pneumoniae, K. pneumoniae HAV#404, Clinical) was 64 µg/mL (≈ 115 µM) and the MIC ([1]; Klebsiella pneumoniae, K. pneumoniae HAV#405, Clinical) was 64 µg/mL (≈ 115 µM). The MIC ([1]; Klebsiella pneumoniae, K. pneumoniae HAV#406, Clinical) was < 0.06 µg/mL, the MIC ([1]; Klebsiella pneumoniae, K. pneumoniae HAV#407, Clinical) was 1 µg/mL (≈ 1.8 µM) and the MIC ([1]; Klebsiella pneumoniae, K. pneumoniae HAV#408, Clinical) was 2 µg/mL (≈ 3.61 µM). For the same molecule, the MIC ([1]; Klebsiella pneumoniae, K. pneumoniae HAV#409, ESBL-producing) was 128 µg/mL (≈ 231 µM), the MIC ([1]; Neisseria gonorrhoeae, N. gonorrhoeae HAV#701, Clinical) was 0.125 µg/mL (≈ 0.225 µM) and the MIC ([1]; Neisseria gonorrhoeae, N. gonorrhoeae HAV#702, Clinical) was 0.25 µg/mL (≈ 0.451 µM). For the same molecule, the MIC ([1]; Staphylococcus aureus, MRSA, S. aureus HAV#017, MRSA Col(Colindale, England)) was > 128 µg/mL, the MIC ([1]; Staphylococcus aureus, MRSA, S. aureus HAV#218, Line R) was 32 µg/mL (≈ 57.7 µM) and the MIC ([1]; Staphylococcus aureus, MRSA, S. aureus HAV#220, Line R) was > 128 µg/mL. It also gave an MIC ([1]; Staphylococcus aureus, MSSA, S. aureus HAV#219, Line R) of 2 µg/mL (≈ 3.61 µM), an MIC ([1]; Staphylococcus aureus, S. aureus HAV#052, mecA, norA, fosB, blaZ) of 64 µg/mL (≈ 115 µM) and an MIC ([1]; Staphylococcus aureus, S. aureus HAV#053 mecA, norA, fosB) of 128 µg/mL (≈ 231 µM). The MIC ([1]; Staphylococcus aureus, S. aureus HAV#054, mecA, norA, spcl, aad1, fosB, ermA, aac6′-aph2″, blaZ) was > 256 µg/mL, the MIC ([1]; Staphylococcus aureus, S. aureus HAV#211, Clinical) was > 64 µg/mL and the MIC ([1]; Staphylococcus aureus, S. aureus HAV#212, Clinical) was 32 µg/mL (≈ 57.7 µM). For the same molecule, the MIC ([1]; Staphylococcus aureus, S. aureus HAV#213, Clinical) was 1 µg/mL (≈ 1.8 µM), the MIC ([1]; Staphylococcus aureus, S. aureus HAV#214, Clinical) was 4 µg/mL (≈ 7.21 µM) and the MIC ([1]; Staphylococcus aureus, S. aureus HAV#215, Clinical) was 1 µg/mL (≈ 1.8 µM). The MIC ([1]; Staphylococcus aureus, S. aureus HAV#216, Clinical, cfr) was 128 µg/mL (≈ 231 µM), the MIC ([1]; Staphylococcus aureus, S. aureus HAV#217, cfr) was 64 µg/mL (≈ 115 µM) and the MIC ([1]; Staphylococcus epidermidis, S. epidermidis HAV# 275 Clinical, cfr) was > 128 µg/mL. The MIC ([1]; Staphylococcus epidermidis, S. epidermidis HAV# 276, cfr) was > 128 µg/mL, the MIC ([1]; Staphylococcus epidermidis, S. epidermidis HAV#277, Line R) was > 128 µg/mL and the MIC ([1]; Staphylococcus epidermidis, S. epidermidis HAV#278 Line R) was > 128 µg/mL. The MIC ([1]; Staphylococcus epidermidis, S. epidermidis HAV#279, Line R) was 4 µg/mL (≈ 7.21 µM), the MIC ([1]; Staphylococcus haemolyticus, S. haemolyticus 5052, Line R & Methicillin R) was > 256 µg/mL and the MIC ([1]; Streptococcus pneumoniae, ATCC700673, S. pneumoniae HAV#352, ATCC 700673, MDR) was 1 µg/mL (≈ 1.8 µM). The MIC ([1]; Streptococcus pneumoniae, ATCCBAA255, S. pneumoniae HAV#354, ATCC-BAA-255) was 1 µg/mL (≈ 1.8 µM), the MIC ([1]; Streptococcus pneumoniae, ATCCBAA334, S. pneumoniae HAV#353, ATCC-BAA-334) was 1 µg/mL (≈ 1.8 µM) and the MIC ([1]; Streptococcus pneumoniae, S. pneumoniae HAV#356, Clinical) was 1 µg/mL (≈ 1.8 µM). For the same molecule, the MIC ([1]; Streptococcus pneumoniae, S. pneumoniae HAV#358, Clinical) was 1 µg/mL (≈ 1.8 µM), the MIC (E. coli LptD) was ≤ 0.06 µg/mL and the MIC (S. aureus ATCC 29213) was 2 µg/mL (≈ 3.61 µM). For the same molecule, the MIC (S. aureus ATCC 700699) was > 128 µg/mL, the MIC [2] was 64 µg/mL (≈ 115 µM) and the MIC (S. pneumoniae ATCC 49619) was 0.06 µg/mL (≈ 0.108 µM). For the same molecule, the MIC (S. pneumoniae ATCC 6303) was 0.06 µg/mL (≈ 0.108 µM) and the MIC [3] was ≤ 0.03 µg/mL.
